In patent US12624004B2 (Fudan University, priority 2019, dated 2026):
Where two headings read alike, the source gives them in different places.

Key:
κ opioid receptor = biological target: T1, κ opioid receptor (Homo sapiens, UniProt P41145); assay: Competition binding assay on membranes of CHO cells expressing κ opioid receptor, [3H]-labeled ligand
T1 construct: expressed in transfected cells; host or cells: CHO cells (membranes)
In short: (§1)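 CHO membranes (20–30 μg protein) incubated with [3H]-labeled ligand at 1–2 nM and test compounds, 30 min at 30° C; nonspecific binding with 1 μM corresponding ligand. Filtered on GF/C, washed with 50 mM Tris-HCl pH 7.4, scintillation-counted. IC50 converted to Ki by Ki=IC50/(1+[L]/Kd).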

δ opioid receptor = biological target: T2, δ opioid receptor (Homo sapiens, UniProt P41143); assay: Competition binding assay on membranes of CHO cells expressing δ opioid receptor, [3H]-labeled ligand
T2 construct: expressed in transfected cells; host or cells: CHO cells (membranes)
In short: as §1

[1] = Table 3-1, 1 μM concentration of compounds
[2] = Table 4-1, 1 μM concentration of compound

COc1cccc(C2(O)CCCCC2CN(C)C)c1 (stereo not shown) [Tramadol, reference compound]
0%: inhibition at 10 µM (κ opioid receptor; 0.5 h, Table 1-1, 10 μM concentration of compound, read-out: κOR Binding rate (%)) | inhibition at 1 µM (κ opioid receptor; 0.5 h, Table 2-1, 1 μM concentration of compound, read-out: κOR Binding rate (%)) | inhibition at 1 µM (κ opioid receptor; 0.5 h, Table 5-1, 1 μM concentration of compound, read-out: κOR Combination rate (%)) | κOR Binding rate (%) (κ opioid receptor; [1]) | κOR Binding rate (%) (κ opioid receptor; [2]) | inhibition at 10 µM (δ opioid receptor; 0.5 h, Table 1-1, 10 μM concentration of compound, read-out: δOR Binding rate (%)) | inhibition at 1 µM (δ opioid receptor; 0.5 h, Table 2-1, 1 μM concentration of compound, read-out: δOR Binding rate (%)) | inhibition at 1 µM (δ opioid receptor; 0.5 h, Table 5-1, 1 μM concentration of compound, read-out: δOR Combination rate (%)) | δOR Binding rate (%) (δ opioid receptor; [1]) | δOR Binding rate (%) (δ opioid receptor; [2])
